Source: PMC7767381, “Exploring the Anti-Cancer Mechanism of Novel 3,4′-Substituted Diaryl Guanidinium Derivatives” (Pharmaceuticals, 2020)
Entries after “also recorded” stand apart in the source; their conditions may differ. Where a name gives a salt, the structure may show the parent alone. Read-outs that look alike come from different tables or passages of the source.

Tests used:
HL-60 cells [1] = assay: alamarBlue cell viability assay, HL-60; type: cell-based; conditions: Homo sapiens, HL-60, 72 h, read-out: HL-60 IC50 ± SEM
From the text: (§1) Cell viability and proliferation assays were used to evaluate the in vitro cytotoxicity of all synthesised compounds in a variety of different cancer cell lines using the alamarBlue® viability assay and the results are presented in Table 1 and Table 2. The sensitivity of cancer cells to drugs can often be compromised by PIK3CA, Ras and BRAF mutations. To determine whether such mutations are critical to the efficacy of our new compounds we tested them in a range of cancerous cell lines expressing different mutations. Firstly, we used the HL-60 (human promyelocytic leukaemia, NRas mutated) cell line for general cytotoxicity screening of all compounds. […] Lastly, toxicity against MCF-10A, which is a non-tumorigenic epithelial cell line, was also assessed for one of the most promising compounds (4). The graphs representing the viability results with the HL-60, MCF-7, HeLa, HCT-116, and HKH-2 cancer cell lines for compound 1 and derivatives 2, 3, and 4 are shown in Figures S7–S10 (ESI).
Cells were counted and seeded in 96-well plates at a density of 2 × 10^5 cells/mL for HL-60, 2.5 × 10^4 cells/mL for MCF-7, MCF10A and HeLa, 1 × 10^5 cells/mL for HCT116 and HKH-2, all of them in their respective media. The 96-well plates were then treated with a 1:100 dilution of stock concentrations of drugs or EtOH (1% v/v)/DMSO (0.1% v/v) as vehicle control in triplicate. Three blank wells containing 200 µL RPMI with no cells were also set-up as blanks. After a 72 h incubation, 20 µL of alamarBlue was added to each well. The plates were incubated in darkness at 37 °C for 4–5 h using a Molecular Devices microplate reader, the fluorescence (F) was then read at an excitation wavelength of 544 nm and an emission wavelength of 590 nm. Cell viability was then determined by subtracting the mean blank fluorescence (Fb) from the treated sample fluorescence (Fs) and expressing this as a percentage of the fluorescence of the blanked vehicle control (Fc). […] The results were then plotted as a nonlinear regression, sigmoidal dose-response curves on Prism, from which the IC50 value for each drug was determined. […]
Pharmacy, TCD. It was maintained in Roswell Park Memorial Institute (RPMI) 1640 medium with stable glutamate (GlutaMax I) supplemented with 10% (v/v) fetal bovine serum (FBS), 1% (v/v) penicillin/ streptomycin (pen-strep) and 2 mM L-glutamine. […]
(§2) 4.4. AlamarBlue ® Cell Viability Assay
(§3) Cells were counted and seeded in 96 well plates at a density of 2 × 10^5 cells/mL for HL-60, 2.5× 10^4 cells/mL for MCF-7, MCF10A and HeLa, 1 × 10^5 cells/mL for HCT116 and HKH-2, all of them in their respective media. The 96 well plates were then treated with a 1:100 dilution of stock concentrations of drugs or EtOH (1% v/v)/DMSO (0.1% v/v) as vehicle control in triplicate.
Three blank wells containing 200 µL media with no cells were also set-up as blanks. After a 72 h incubation, 20 µL of AlamarBlue was added to each well. The plates were incubated in darkness at 37 °C for 4-5 h. Using a Molecular Devices microplate reader, the fluorescence (F) was then read at an excitation wavelength of 544 nm and an emission wavelength of 590 nm.
Cell viability was then determined by subtracting the mean blank fluorescence (Fb) from the treated sample fluorescence (Fs) and expressing this as a percentage of the fluorescence of the blanked vehicle control (Fc). […] The results were […]
then plotted as a nonlinear regression, sigmoidal dose-response curves on Prism, from which the IC50 value for each drug was determined.
Fs − Fb x 100 = % Cell Viability
60 cell line in a dose-dependent manner.
(1 picture or pasted object on this page, not shown here)

MCF-7 cells = assay: alamarBlue cell viability assay, MCF-7; type: cell-based; conditions: Homo sapiens, MCF7, 72 h, read-out: MCF-7 IC50 ± SEM
From the text: as §1
(§4) Cells were counted and seeded in 96-well plates at a density of 2 × 10^5 cells/mL for HL-60, 2.5 × 10^4 cells/mL for MCF-7, MCF10A and HeLa, 1 × 10^5 cells/mL for HCT116 and HKH-2, all of them in their respective media. The 96-well plates were then treated with a 1:100 dilution of stock concentrations of drugs or EtOH (1% v/v)/DMSO (0.1% v/v) as vehicle control in triplicate. Three blank wells containing 200 µL RPMI with no cells were also set-up as blanks. After a 72 h incubation, 20 µL of alamarBlue was added to each well. The plates were incubated in darkness at 37 °C for 4–5 h using a Molecular Devices microplate reader, the fluorescence (F) was then read at an excitation wavelength of 544 nm and an emission wavelength of 590 nm. Cell viability was then determined by subtracting the mean blank fluorescence (Fb) from the treated sample fluorescence (Fs) and expressing this as a percentage of the fluorescence of the blanked vehicle control (Fc). […] The results were then plotted as a nonlinear regression, sigmoidal dose-response curves on Prism, from which the IC50 value for each drug was determined.
(§5) The MCF-7 (human breast tumour) cell line was obtained from Prof. Mary Meegan, School of Pharmacy, TCD. It was maintained in Roswell Park Memorial Institute (RPMI) 1640 medium with stable glutamate (GlutaMax I) supplemented with 10% (v/v) fetal bovine serum (FBS), 1% (v/v) penicillin/ streptomycin (pen-strep) and 2 mM L-glutamine.
(§6) The HeLa (human epitheloid cervix carcinoma) cell line was obtained from Prof. Thorfinnur Gunnlaugsson, School of Chemistry TCD. It was maintainedin Dulbecco's Modified Eagle's Medium (DMEM) supplemented with 10% (v/v) fetal bovine serum (FBS) and 1%(v/v) penicillin/ streptomycin (pen-strep).
(§7) The HCT116and HKH-2 (human colon cancer cells) cell lines were obtained from Prof. James Murray, School of Biochemistry and Immunology TCD. They were maintainedin Dulbecco's Modified Eagle's Medium (DMEM) supplemented with 10% (v/v) fetal bovine serum (FBS), 1% (v/v) penicillin/ streptomycin (pen-strep), 1% (v/v) sodium pyruvate (NaPyr), 1% (v/v) L-glutamine (L-Glu) and, only for HKH-2, 0.6 mg/mL geneticine (G418).
MCF-10A (human breast epithelial) cell line was obtained from Prof. Mary Meegan, School of Pharmacy, TCD. It was cultured in Dulbecco’s Modified Eagle Medium/Nutrient Mixture F-12 (DMEM/F12; Gibco) supplemented with 5% horse serum (Invitrogen), 20 ng/mL epidermal growth factor (Merck Millipore), 0.5 μg/mL hydrocortisone (Sigma), 100 ng/mL cholera toxin (Sigma), 10 μg/mL insulin (Sigma), and penicillin/streptomycin (1% v/v) (Gibco).
as §2
as §3, with “triplicate. […]” for “triplicate.”

HKH-2 cells = assay: alamarBlue cell viability assay, HKH-2; type: cell-based; conditions: Homo sapiens, 72 h, mutated KRas disrupted, read-out: HKH-2 IC50 ± SEM
From the text: as §1, §4, §5, §6, §7
(§8) MCF-10A (human breast epithelial) cell line was obtained from Prof. Mary Meegan, School of Pharmacy, TCD. […]
(§9) Cells were counted and seeded in 96 well plates at a density of 2 × 10^5 cells/mL for HL-60, 2.5× 10^4 cells/mL for MCF-7, MCF10A and HeLa, 1 × 10^5 cells/mL for HCT116 and HKH-2, all of them in their respective media. […]

HeLa cells = assay: alamarBlue cell viability assay, HeLa; type: cell-based; conditions: Homo sapiens, 72 h, read-out: HeLa IC50 ± SEM
From the text: as §1, §4, §5, §6, §7, §8, §9

HCT116 cells = assay: alamarBlue cell viability assay, HCT116; type: cell-based; conditions: Homo sapiens, HCT-116, 72 h, KRas mutant, read-out: HCT116 IC50 ± SEM
From the text: as §1, §4, §5, §6, §7, §8, §9

[2] = system: ERK phosphorylation (MAPK/ERK pathway); assay: Western immunoblot of ERK phosphorylation in HL-60 extracts; type: cell-based, human; conditions: HL-60, 5 and 10 μM, 16 h
Description: Thus, using Western immunoblot analysis of HL-60 extracts, we investigated the expression and phosphorylation levels of ERK (as an indication of ERK activation), which is the downstream effector of the Ras/BRAF signalling pathway (Figure 6).
HL60s were seeded in T25 flasks at 50 × 10^4 cells/mL and cells were treated with either vehicle [0.5% EtOH (v/v)], 1–4, 9 or 52 (5 µM), as well as 1 (10 µM as reported). After 16 h, cells were collected and washed with PBS. Cell pellets were re-suspended in cold cell lysis buffer (radio-immunoprecipitation assay buffer) supplemented with 1% phosphatase inhibitor cocktail 2 and 3 (Sigma) and 10% protease inhibitor (Roche). Cells were lysed for 30 min on ice. Protein concentration was then determined by BCA assay. Lysates were boiled with Laemmli sample buffer [Tris-HCL 50 mM (pH 6.7), glycerol 10% (w/v), sodium dodecyl sulphate 2% (w/v), bromophenol blue 0.02% (w/v)] containing DTT […] for 10 min at 90 °C. Moreover, 20 µg of lysates were resolved by sodium dodecyl sulphate polyacrylamide gel electrophoresis (SDS-PAGE) and transferred onto PVDF transfer membrane (EMD Millipore). Membranes were blocked with 5% non-fat milk and probed with primary antibodies for ERK and phospho-ERK (Cell Signalling). Anti-GAPDH was used as a loading control (Calbiochem).
Figure 6 Western immunoblot of HL-60 cell extracts following incubation with compounds 2, 3, 4, 9, 52 and 1 (as a control). HL60 cells were seeded at 2 × 10^5 cells/mL and were treated with either vehicle [0.5% EtOH (v/v)], compounds 52, 2, 9, 3 and 4 (5 µM) or compound 1 (5 and (*) 10 µM, as in reference) for 16 h. Cells were lysed and equal amounts of protein were loaded and separated on 15% SDS-PAGE gels, transferred to PVDF membrane and probed with antibodies against total and phosphorylated ERK. Anti-GAPDH was used as a loading control. Results are representative of 2 independent experiments.
HL-60 cells were seeded in T25 flasks at 50 x10^4 cells/mL and treated with either vehicle [0.5% […]
After 16 hours, cells were […]
collected and washed with PBS. Cell pellets were re-suspended in cold cell lysis buffer (radio-immunoprecipitation assay buffer) supplemented with 1% phosphatase inhibitor cocktail 2 and 3 (Sigma) and 10% protease inhibitor (Roche). Cells were lysed for 30 minutes on ice.
Protein concentration was then determined by BCA assay. Lysates were boiled with laemmli sample buffer [Tris-HCL 50 mM (pH 6.7), glycerol 10% (w/v), sodium dodecyl sulphate 2% (w/v), bromophenol blue 0.02% (w/v)] containing DTT […] for 10 min. at 90 °C. Also 20 µg of lysates were resolved by sodium dodecyl sulphate polyacrylamide gel electrophoresis (SDS - PAGE) and transferred onto PVDF transfer membrane (EMD Millipore). Membranes were blocked with 5% non-fat milk and probed with primary antibodies for ERK and phospho-ERK (Cell Signaling). Anti-GAPDH was used as a loading control (Calbiochem).

BRAF [3] = system: BRAF; design: method as in PMID 24858546, PMID 26318998; conditions: cited from earlier work
HL-60 cells [4] = system: HL-60 cells; design: method as in PMID 24858546; conditions: alamarBlue; previously tested compound; read-out: HL-60 IC50 ± SEM; cited from earlier work
BRAF [5] = system: BRAF; design: method as in PMID 24858546, PMID 26318998; conditions: in vitro; cited from earlier work

Structure (SMILES) | IC50 (HL-60 cells [1]; alamarBlue, 72 h) | IC50 (MCF-7 cells) | IC50 (HL-60 cells [1]) | IC50 (HKH-2 cells) | IC50 (HeLa cells) | IC50 (HCT116 cells) | effect on ERK phosphorylation (Ras/BRAF pathway) [2] | inhibition of ATP binding to BRAF (BRAF [3]) | IC50 (HL-60 cells [4]) | BRAF activity in radiometric assay (BRAF [5])
N=C(N)Oc1ccc(Oc2cccc(Nc3ccc(Cl)c(C(F)(F)F)c3)c2)cc1 [Compound 70, 4-(3-((4-Chloro-3-(trifluoromethyl)phenyl)amino)phenoxy)phenyl carbamimidate hydrochloride] | 4.22 ± 0.04 µM | 7.32 ± 0.35 µM | – | – | – | – | – | – | – | –
CNC(=O)c1cc(Oc2ccc(NC(=O)Nc3ccc(Cl)c(C(F)(F)F)c3)cc2)ccn1 [Sorafenib, reference compound] | – | 3.07 ± 0.1 µM | 2.53 ± 0.68 µM | 4.43 ± 0.39 µM | 4.59 ± 0.45 µM | 6.79 ± 0.18 µM | – | – | – | –
N=C(N)Nc1ccc(Oc2cccc(NC(=N)Nc3ccc(Cl)c(C(F)(F)F)c3)c2)cc1 [Compound 1] | – | 9.3 ± 1.87 µM | – | 19.2 ± 0.84 µM | 9.48 ± 0.16 µM | 9.96 ± 0.6 µM | inhibiting ERK phosphorylation; also recorded: abrogates ERK activation | did not inhibit ATP binding to BRAF | 9.72 ± 0.9 µM | inhibited in vitro
